In ChEMBL document CHEMBL5338776, “Design and Characterization of Squaramic Acid-Based Prostate-Specific Membrane Antigen Inhibitors for Prostate Cancer” (J Med Chem, 2023):

Legend:
[1] = molecular target: T1, Glutamate carboxypeptidase 2 (Homo sapiens, UniProt Q04609); experiment: Binding affinity to human recombinant PSMA (unknown origin) assessed as inhibition constant incubated for 60 mins in presence of NAAG
[2] = Drug uptake in 22Rv1 tumor bearing mouse assessed as tumor to normal tissue ratio measured at 0.85 mg/kg, iv after 24 hrs by NIR-II imaging analysis; type: ADME, organism-based; settings: in vivo
[3] = Drug uptake in 22Rv1 tumor bearing mouse measured at 0.85 mg/kg, iv after 24 hrs in presence of (2S)-2-[[(1S)-1-Carboxy-5-[(4-iodobenzoyl)amino]pentyl]carbamoylamino]pentanedioic acid by NIR-II imaging analysis; type: ADME, organism-based, Neoplasm; settings: in vivo
[4] = Drug uptake in 22Rv1 tumor bearing mouse assessed as fluorescence in intestine measured at 0.85 mg/kg, iv after 24 hrs by NIR-II imaging analysis; type: ADME, organism-based; settings: in vivo
[5] = Drug uptake in 22Rv1 tumor bearing mouse assessed as fluorescence in muscle measured at 0.85 mg/kg, iv after 24 hrs by NIR-II imaging analysis; type: ADME, organism-based, Muscle tissue; settings: in vivo
[6] = Drug uptake in 22Rv1 tumor bearing mouse assessed as fluorescence in liver measured at 0.85 mg/kg, iv after 24 hrs by NIR-II imaging analysis; type: ADME, organism-based; settings: in vivo
[7] = Drug uptake in 22Rv1 tumor bearing mouse assessed as fluorescence in kidney measured at 0.85 mg/kg, iv after 24 hrs by NIR-II imaging analysis; type: ADME, organism-based; settings: in vivo
[8] = Drug uptake in 22Rv1 tumor bearing mouse assessed as fluorescence in stomach measured at 0.85 mg/kg, iv after 24 hrs by NIR-II imaging analysis; type: ADME, organism-based; settings: in vivo
[9] = Drug uptake in 22Rv1 tumor bearing mouse assessed as tumor to liver ratio measured at 0.85 mg/kg, iv after 24 hrs by NIR-II imaging analysis; type: ADME, organism-based; settings: in vivo
[10] = Drug uptake in 22Rv1 tumor bearing mouse assessed as fluorescence in brain measured at 0.85 mg/kg, iv after 24 hrs by NIR-II imaging analysis; type: ADME, organism-based; settings: in vivo
[11] = Drug uptake in 22Rv1 tumor bearing mouse assessed as fluorescence in pancreas measured at 0.85 mg/kg, iv after 24 hrs by NIR-II imaging analysis; type: ADME, organism-based; settings: in vivo
[12] = Drug uptake in 22Rv1 tumor bearing mouse assessed as fluorescence in spleen measured at 0.85 mg/kg, iv after 24 hrs by NIR-II imaging analysis; type: ADME, organism-based; settings: in vivo
[13] = Drug uptake in 22Rv1 tumor bearing mouse assessed as fluorescence in lung measured at 0.85 mg/kg, iv after 24 hrs by NIR-II imaging analysis; type: ADME, organism-based; settings: in vivo
[14] = Drug uptake in 22Rv1 tumor bearing mouse assessed as fluorescence in heart measured at 0.85 mg/kg, iv after 24 hrs by NIR-II imaging analysis; type: ADME, organism-based; settings: in vivo
[15] = Drug uptake in 22Rv1 tumor bearing mouse assessed as fluorescence in tumor measured at 0.85 mg/kg, iv after 24 hrs by NIR-II imaging analysis; type: ADME, organism-based, Neoplasm; settings: in vivo
[16] = molecular target: T1, Glutamate carboxypeptidase 2; experiment: Binding affinity to PSMA (unknown origin) assessed as inhibition constant

T1 sequence (Q04609 whole entry): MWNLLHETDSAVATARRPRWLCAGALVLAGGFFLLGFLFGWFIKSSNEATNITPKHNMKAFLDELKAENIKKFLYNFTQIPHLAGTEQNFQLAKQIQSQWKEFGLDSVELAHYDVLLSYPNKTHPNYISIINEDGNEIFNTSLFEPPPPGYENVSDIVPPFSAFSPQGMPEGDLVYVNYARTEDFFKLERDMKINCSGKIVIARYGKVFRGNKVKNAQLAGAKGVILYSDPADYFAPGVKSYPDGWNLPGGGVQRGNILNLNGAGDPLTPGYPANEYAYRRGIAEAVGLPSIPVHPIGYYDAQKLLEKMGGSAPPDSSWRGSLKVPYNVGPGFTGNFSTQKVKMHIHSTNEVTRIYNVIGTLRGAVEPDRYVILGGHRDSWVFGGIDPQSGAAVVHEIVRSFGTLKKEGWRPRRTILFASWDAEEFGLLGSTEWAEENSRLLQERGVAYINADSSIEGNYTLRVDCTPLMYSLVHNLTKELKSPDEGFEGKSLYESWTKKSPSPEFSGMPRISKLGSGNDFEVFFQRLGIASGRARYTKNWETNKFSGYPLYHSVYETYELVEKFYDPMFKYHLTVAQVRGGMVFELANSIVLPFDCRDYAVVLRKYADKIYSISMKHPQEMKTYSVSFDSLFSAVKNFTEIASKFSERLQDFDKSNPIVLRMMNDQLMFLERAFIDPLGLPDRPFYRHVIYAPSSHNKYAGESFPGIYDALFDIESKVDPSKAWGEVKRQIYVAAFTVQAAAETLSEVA

For O=C(NC(CCCCNC(=O)c1ccc(I)cc1)C(=O)O)N[C@@H](CNc1c(O)c(=O)c1=O)C(=O)O (stereo not given in full), the Ki [1] was 1.35 nM.

Compound O=C(O)CC(=O)NC[C@H](NC(=O)N[C@@H](CCCCNC(=O)c1ccc(I)cc1)C(=O)O)C(=O)O has a Ki [1] of 221 nM.

Work on O=C(N[C@@H](CCCCNC(=O)c1cc(I)cc(C(=O)NCCCC[C@H](NC(=O)N[C@@H](CNc2c(O)c(=O)c2=O)C(=O)O)C(=O)O)c1)C(=O)O)N[C@@H](CNc1c(O)c(=O)c1=O)C(=O)O yielded a Ki [1] of 0.4 nM.

For O=C(O)CC(=O)NC[C@H](NC(=O)N[C@@H](CCCCNC(=O)c1cc(I)cc(C(=O)NCCCC[C@H](NC(=O)N[C@@H](CNC(=O)CC(=O)O)C(=O)O)C(=O)O)c1)C(=O)O)C(=O)O, the Ki [1] was 33.8 nM.

Work on CN(CCC(=O)NCCCC[C@H](NC(=O)N[C@@H](CCC(=O)O)C(=O)O)C(=O)O)c1ccc(-c2c3c(c(-c4ccc(N(C)CCC(=O)NCCCC[C@H](NC(=O)N[C@@H](CCC(=O)O)C(=O)O)C(=O)O)cc4)c4nsnc24)N=S=N3)cc1 yielded a Ratio [2] of 6.66.

In the case of O=C(N[C@@H](CCCCNC(=O)c1cc(F)cc(C(=O)NCCCC[C@H](NC(=O)N[C@@H](CNc2c(O)c(=O)c2=O)C(=O)O)C(=O)O)c1)C(=O)O)N[C@@H](CNc1c(O)c(=O)c1=O)C(=O)O, the Ki [1] is reported as 0.41 nM.

In the case of CN(CCC(=O)NCCCC[C@H](NC(=O)N[C@@H](CNc1c(O)c(=O)c1=O)C(=O)O)C(=O)O)c1ccc(-c2c3c(c(-c4ccc(N(C)CCC(=O)NCCC[C@H](NC(=O)N[C@@H](CNc5c(O)c(=O)c5=O)C(=O)O)C(=O)O)cc4)c4nsnc24)N=S=N3)cc1, the Drug uptake [3] is reported as “Not Active”, the Drug uptake [4] is reported as “Not Active” and the Drug uptake [5] is reported as “Not Active”. For the same compound, the Drug uptake [6] was “Active”, the Drug uptake [7] was “Active” and the Drug uptake [8] was “Not Active”. The Ratio [9] was 5.39, the Ki [1] was 1.07 nM and the Drug uptake [10] was “Not Active”. The Drug uptake [11] was “Not Active”, the Drug uptake [12] was “Not Active” and the Drug uptake [13] was “Not Active”. The Drug uptake [14] was “Not Active”, the Drug uptake [15] was “Active” and the Ratio [2] was 4.79.

With O=C(N[C@@H](CCCCNC(=O)c1ccc(F)cc1)C(=O)O)N[C@@H](CNc1c(O)c(=O)c1=O)C(=O)O the Ki [1] was 0.9 nM.

In the case of CC1(C)C(/C=C2/C(=O)C(/C=C3\N(CCCCCC(=O)NCCCC[C@H](NC(=O)N[C@@H](CCC(=O)O)C(=O)O)C(=O)O)c4ccccc4C3(C)C)=C2[O-])=[N+](CCCCCC(=O)NCCCC[C@H](NC(=O)N[C@@H](CCC(=O)O)C(=O)O)C(=O)O)c2ccccc21, the Ki [16] is reported as 0.74 nM.

With O=C(O)CC[C@H](Nc1c(N[C@@H](CCCCNC(=O)c2cc(I)cc(C(=O)NCCCC[C@H](Nc3c(N[C@@H](CCC(=O)O)C(=O)O)c(=O)c3=O)C(=O)O)c2)C(=O)O)c(=O)c1=O)C(=O)O the Ki [1] was 107 nM.

With O=C(O)CC[C@H](NC(=O)N[C@@H](CCCNC(=O)c1ccc(F)cc1)C(=O)O)C(=O)O the Ki [1] was 0.86 nM.
